PMC7828231, “Delphinidin Increases the Sensitivity of Ovarian Cancer Cell Lines to 3-bromopyruvate” (International Journal of Molecular Sciences, 2021)

What was measured:
SKOV3 cells [1] = test: Mitochondrial mass (NAO); format: cell-based, human; conditions: 25-µM D, 40 µM 3-BP, 24 h
Description: (§1) Cells were seeded at the density of 2 × 10^5 cells/well onto a 24-well plate and cultured as stated before. Following 24-hour exposure to the studied compounds, the cells were trypsinized, counted and transferred to separate Eppendorf tubes, and then centrifuged for 6 minutes at 3000 rpm. Subsequently the supernatant was discharged and the cells were washed with 1 mL of PBS and centrifuged again. Afterwards, 1 mL of 10 μM NAO solution in PBS was added into the samples, and incubated for 10 min in a CO2 incubator at 37 °C. Next, the cells were centrifuged and the pellet was washed with PBS, and resuspended in 300 μL of PBS. Each sample was transferred into a 96-well black plate (100 μL/well; 3 repetitions). Fluorescence was measured at 435/535 nm. The results were determined in relation to the cell count.

PEO1 cells [2] = test: Mitochondrial mass (NAO); format: cell-based, human; conditions: 25-µM D, 20 µM 3-BP, 24 h
Description: as §1

SKOV3 cells [3] = test: Mitochondrial membrane potential (JC-1); format: cell-based, human; conditions: 25-µM D, 40 µM 3-BP, 24 h
Description: (§2) Changes of mitochondrial membrane potential was evaluated using 5,5′,6,6′-tetrachloro-1,1′,3,3′-tetraethyl-imidacarbocyanine iodide, 5,5′,6,6′-tetrachloro-1,1′,3,3′-tetraethylbenzimidazolocarbocyanine iodide (JC-1) with a Mitochondrial Membrane Potential Assay Kit.
(§3) The cells were seeded into black plates and treated as mentioned before. After 24h incubation with the studied compounds, the medium was discharged and replaced with 100x diluted JC-1 reagent in complete culture medium and incubated for 30 min in a CO2 incubator. Next, the plate was centrifuged at 4000 rpm for 5 min and afterwards the reagent was aspirated, and cells were washed with 150 μL/well Cell-Based Assay Buffer and centrifuged once more. After removing the supernatant, 100 μL/well of the new buffer was added. Fluorescence was measured at 540/570 nm (red fluorescence) and 485/535 nm (green fluorescence). The results were presented as a ratio of green to red fluorescence intensity ratio.

PEO1 cells [4] = test: Mitochondrial membrane potential (JC-1); format: cell-based, human; conditions: 25-µM D, 20 µM 3-BP, 24 h
Description: as §2, §3

SKOV3 cells [5] = test: GSH content (OPA); format: cell-based, human; conditions: 25-µM D, 40 µM 3-BP, 24 h
Description: (§4) The content of reduced glutathione was assayed with OPA [63]. Briefly, the cells were seeded in wells of a transparent 96-well plate at a density of 7.5 × 10^3/well (MRC-5) or 1 × 10^4/well (cancer cells) and allowed to attach at 37 °C for 24 h. After 24-h treatment with the tested compounds, the medium was removed, the cells were washed with PBS (150 µL per well) and then added with 60 µL/well of cold redox quenching buffer (RQB) containing 20-mM HCl, 5% TCA, 5-mM DTPA and 10-mM L-ascorbic acid. The plate was shaken for 5 minutes and centrifuged for 5 minutes at 4000 rpm. Next, the supernatant was transferred into two 96-well black plates (“+NEM” and “–NEM”; 25 µL/well). Within the “+NEM” plate, 4 µL/well of freshly prepared 7.5-mM NEM in cold RQB buffer was added. Then, 1-M phosphate buffer (pH 7.0) was added into both plates (40 µL/well), and the plates were shaken for 5 min at 700 rpm. Finally, 160 µL/well of cold 0.1-M phosphate buffer (pH 6.8) and 25 µL/well of freshly prepared 0.5% OPA in methanol were added into both plates. Both plates were incubated for 30 minutes at room temperature with constant shaking. Fluorescence was then measured at 355/430 nm. The protein contents in the cell lysates were determined according to Lowry et al.. The concentration of reduced glutathione was determined by subtracting […] and calculated with respect to the protein content.

PEO1 cells [6] = test: GSH content (OPA); format: cell-based, human; conditions: 25-µM D, 20 µM 3-BP, 24 h
Description: as §4

MRC-5 fibroblasts [7] = test: GSH content (OPA); format: cell-based, human; conditions: 25-µM D, 40 µM 3-BP, 24 h
Description: as §4

SKOV3 cells [8] = test: ATP level (CellTiter-Glo); format: cell-based, human; conditions: 25-µM D, 40 µM 3-BP, 24 h
Description: (§5) To determine the ATP level in the cells, the CellTiter-Glo® Luminescent Cell Viability Assay (Promega) was used. This method is based on the ATP-dependent conversion of luciferin to the luminescent oxyluciferin. Briefly, cells were seeded in a white/clear bottom 96-well plate with a density of 1 × 10^4/well (SKOV3 and PEO1) or 7.5 × 10^3/well (MRC-5). After 24-h incubation, the cells were treated with 25-µM D, a IC50 concentration of 3-BP (SKOV3 and MRC-5: 40 µM and PEO1: 20 µM) and both compounds simultaneously. The ATP level was determined after 24-h exposure to the tested compounds. The plate was equilibrated at room temperature for approximately 25 minutes. Next, 100 µL of the CellTiter-Glo® Reagent was added to each well, and the plate was shaken for 2 minutes. Then, the plate was left at room temperature for 10 minutes, and the luminescence was measured in a Spark multimode microplate reader (Tecan Group LTD., Männedorf, Switzerland).

PEO1 cells [9] = test: ATP level (CellTiter-Glo); format: cell-based, human; conditions: 25-µM D, 20 µM 3-BP, 24 h
Description: as §5

MRC-5 fibroblasts [10] = test: ATP level (CellTiter-Glo); format: cell-based, human; conditions: 25-µM D, 40 µM 3-BP, 24 h
Description: as §5

SKOV3 cells [11] = test: Cell migration (scraped area closure); format: cell-based, human
Description: Ovarian cancer cells and human normal fibroblasts were seeded on a 24-well plate at a density of 7 × 10^4/well (PEO1), 6.5 × 10^4/well (SKOV3) and 6 × 10^4/well (MRC-5) in 700 µL of appropriate cell medium and cultured at 37 °C to reach 90–95% confluence. Then, the cells in the middle of the wells were scraped off using sterile pipette tips (100 µL), cell debris was removed by washing with medium containing 2% FBS and the tested compounds diluted with medium containing 2% FBS were added. Images of the scraped area were collected after 12 h and 24 h at 10× objective magnification using an Olympus CKX53 microscope with a U-TV0. 5XC-3 digital microscope camera. The obtained results were analyzed using ImageJ software. The percentage of scraped area closure was estimated as the ratio of area measured after 12- or 24-h incubation and the area at the beginning of the experiment.

HeLa cells = tested on: HeLa cells; design: method as in PMID 15016660; conditions: 100–200 µM; cited from earlier work
[12] = design: method as in PMID 17729219; conditions: DMEM medium, after 30 min; cited from earlier work
HCT-116 cells = tested on: HCT-116 cells; design: method as in PMID 15680311; conditions: HCT-116, 50–200 µM; cited from earlier work
HCT116 cells = tested on: HCT116 cells; design: method as in PMID 18729103; conditions: cited from earlier work
22Rν1 cells = tested on: 22Rν1 cells; design: method as in PMID 18948740; conditions: cited from earlier work

Row | Compound | mitochondrial mass (SKOV3 cells [1]) | mitochondrial mass (PEO1 cells [2]) | mitochondrial potential (JC-1 fluorescence ratio) (SKOV3 cells [3]) | mitochondrial potential (JC-1 fluorescence ratio) (PEO1 cells [4]) | GSH level (SKOV3 cells [5]) | GSH level (PEO1 cells [6]) | GSH level (MRC-5 fibroblasts [7]) | ATP content (SKOV3 cells [8]) | ATP content (PEO1 cells [9]) | ATP content (MRC-5 fibroblasts [10]) | cell migration (SKOV3 cells [11]) | viability (HeLa cells) | stability in cell culture medium [12] | viability (HCT-116 cells) | IC50 (HCT116 cells) [µM] | IC50 (22Rν1 cells) [µM]
1 | O=C(O)C(=O)CBr [3-BP, 3-bromopyruvic acid] | increased | increased | increased | decreased | increased | decreased | neither 3-BP or D alone modified | neither 3-BP nor D affected | decrease | not affected | decreased | – | – | – | – | –
2 | Oc1cc(O)c2cc(O)c(-c3cc(O)c(O)c(O)c3)[o+]c2c1 [Delphinidin chloride, 3,3′,4′,5,5′,7-hexahydroxyflavylium] | decreased | increased | increased | decreased | without effect | did not affect | neither 3-BP or D alone modified | neither 3-BP nor D affected | did not change | not affected | decreased | decreased the viability | not detectable | did not affect significantly the viability | 110 | 90
